Assay results taken from patent US20080227757A1, “Formulation for dermal application” (priority 2005, published 2008).

How the values were obtained:
[1] = Octanol-water distribution coefficient (log P), lipophily
Protocol: The lipophily value P gives low lipophility at a low value of the logarithm of P (log P), and a high value of the log P gives high lipophily. The distribution coefficient P is measured at pH 7.4 and 21° C. in octanol water.

[2] = Permeation of active ingredient from formulations through isolated human Stratum corneum (modified Franz cell); settings: active ingredient in the inventive formulation
Protocol: To determine the permeation of an active ingredient from the inventive formulation compared to conventional formulations containing active ingredients pharmaceutical preparations containing 5-aminolevulinic acid were tested in vitro on isolated human skin.
Human Stratum corneum, originating from biopsies of plastic operations, was used as isolated human skin. Following the biopsy subcutaneous fat was removed and the skin was frozen in liquid nitrogen, then stored at −25° C. After gradual thawing the Stratum corneum was isolated by trypsination on filter paper, and impregnated with an aqueous 2% trypsin solution. After incubation at 37° C. for 24 h the Stratum corneum could be lifted off, incubated in a 0.01% aqueous solution trypsin inhibitor and then washed several times in water. This isolated horny layer was dried and stored at room temperature in the desiccator. For permeation examinations a modified Franz cell was used, the compartments of which were separated off through the Stratum corneum. Pretreatment of the Stratum corneum is done by total hydration in water and placement on a polycarbonate filter (Isopor membrane filter, type TMTP, 5.0 μm, Millipore) to boost mechanical stability. The donor compartment was filled with inventive or respectively comparative formulation containing 5-aminolevulinic acid, whereby 5-aminolevulinic acid at 10% by weight was contained in the formulations.
The preparation containing 5-aminolevulinic acid, procurable according to Example 2, was tested for permeation as inventive preparation, as compared to a formulation with conventional cream base according to the German Pharmacopoeia (70 parts water, 30 parts hydrophilic salve from 30 parts emulsifying cetylstearyl alcohol (type A), 35 parts viscid paraffin and 35 parts soft Vaseline), and in comparison to a formulation in dolgit microgel (5% by weight ibuprofen, in 2-propanol, dimethyl isosorbide, poloxamer, medium-chain triglycerides, lavender oil, neroli oil and water).
After application the quantity of active ingredient permeated through the skin was measured.

logP ([1]; octanol/water, pH 7.4)	log P ([1]; octanol water, pH 7.4, 21° C.)	permeation of the active ingredient from the inventive formulation through the human Stratum corneum [2]	SMILES	other results
1.42			CCCCOC(=O)CCC(=O)CN [5-ALA-butylester, 5-aminolevulinic acid butyl ester]	
	1.494		NCC(=O)CCC(=O)OC1CCCCC1 [5-ALA-cyclohexylester]	
	0.8411		CCOC(=O)CCC(=O)CN [5-ALA-ethylester]	
	1.839		CCCCCCOC(=O)CCC(=O)CN [5-ALA-hexylester]	
			COC(=O)CCC(=O)CN [5-ALA-methylester, methyl ester of 5-aminolevulinic acid]	log P ([1]; pH 7.4): −0.9423
	2.6199		CCCCCCCCOC(=O)CCC(=O)CN [5-ALA-octylester]	
-1.52			NCC(=O)CCC(=O)O [Example 5-ALA, 5-aminolevulinic acid]	
-1.15		improvement in permeation	CC(=O)Oc1ccccc1C(=O)O [acetylsalicylic acid]	
		improvement in permeation	Clc1ccccc1C(c1ccccc1)(c1ccccc1)n1ccnc1 [clotrimazole]	logP ([1]; pH 7.4): 4.1
		improvement in permeation	CC(=O)OCC(=O)[C@@]1(O)CC[C@H]2[C@@H]3CCC4=CC(=O)CC[C@]4(C)[C@H]3[C@@H](O)C[C@@]21C [hydrocortisone acetate]	logP ([1]; pH 7.4): 2.18
3.3		improvement in permeation	CN(C/C=C/C#CC(C)(C)C)Cc1cccc2ccccc12 [terbinafine]	
